Experimental data published in patent publication US10219516B2, “Molecules having pesticidal utility, and intermediates, compositions, and processes, related thereto” (priority 2015, dated 2019).
Like-named read-outs stand apart in the source and are kept apart here.

Experiments:
Type in all cases: in vivo
[1] = tested on: Cabbage Looper (Trichoplusia ni, TRIPNI); experiment: Bioassay on Cabbage Looper (CL), 128-well diet tray assay; conditions: Trichoplusia ni
In short: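 Second-instar larvae, one to five per well, placed on artificial diet treated with 50 μg/cm^2 test molecule in 90:10 acetone-water, dried before infestation. Held 5–7 days at 25° C, 14:10 light-dark; percent mortality averaged over eight wells.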

[2] = tested on: Beet Armyworm (Spodoptera exigua, LAPHEG); experiment: Bioassay on Beet Armyworm (BAW), 128-well diet tray assay
In short: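 Diet in each of eight wells received 50 μg/cm^2 of test molecule (90:10 acetone-water, dried), then one to five second-instar larvae were added. Mortality (%) was scored after five to seven days at 25° C. under 14:10 light-dark and averaged across the wells.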

[3] = tested on: Green Peach Aphid (Myzus persicae, MYZUPE); experiment: Bioassay on Green Peach Aphid (GPA), foliar spray on infested cabbage seedlings; conditions: 72 h
Method: Certain molecules disclosed in this document were tested against GPA using procedures described in the following example. In the reporting of the results, the “GPA & YFM Rating Table” was used (See Table Section).
Cabbage seedlings grown in 3-inch pots, with 2-3 small (3-5 cm) true leaves, were used as test substrate. The seedlings were infested with 20-50 GPA (wingless adult and nymph stages) one day prior to chemical application. Four pots with individual seedlings were used for each treatment. Test molecules (2 mg) were dissolved in 2 mL of acetone/methanol (1:1) solvent, forming stock solutions of 1000 ppm test molecule. The stock solutions were diluted 5× with 0.025% Tween 20 in water to obtain the solution at 200 ppm test molecule. A hand-held aspirator-type sprayer was used for spraying a solution to both sides of […] leaves until runoff. Reference plants (solvent check) were sprayed with the diluent only containing 20% by volume of acetone/methanol (1:1) solvent. Treated plants were held in a holding room for three days at approximately 25° C. and ambient relative humidity (RH) prior to grading. Evaluation was conducted by counting the number of live aphids per plant under a microscope. Percent control was measured using Abbott's correction formula (W. S. Abbott, “A Method of Computing the Effectiveness of an Insecticide” 3. Econ. Entomol. 18 (1925), pp. 265-267) as follows. Corrected % Control=100*(X−Y)/X where X=No. of live aphids on solvent check plants and Y=No. of live aphids on treated plants. The results are indicated in the table entitled “Table ABC: Biological Results” (See Table Section).

[4] = tested on: Yellow Fever Mosquito (Aedes aegypti, AEDSAE); experiment: Bioassay on Yellow Fever Mosquito (YFM), 96-well plate larval assay; conditions: Species YFM (Yellow Fever Mosquito)
In short: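 Compound stocks at 4000 ppm in DMSO were diluted with 90:10 water/acetone, and 15 μL aliquots were dispensed into six replicate plates. About 1-day-old larvae in liver-powder water were added per well. Plates were covered and held at room temperature for 3 days before each well was scored for mortality.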

[5] = Species CL (Cabbage Looper), read-out: CL (Biological Results, rating)
[6] = Species BAW (Beet Armyworm), read-out: BAW (Biological Results, rating)
[7] = foliar, Species GPA (Green Peach Aphid), read-out: GPA (Biological Results, rating)

O=C(Nc1ccc(F)cc1)c1cc(NC(=O)[C@H]2[C@H](c3cc(Cl)cc(Cl)c3)C2(Cl)Cl)ccc1Cl (relative stereo) [F1, trans-2-chloro-5-(2,2-dichloro-3-(3,5-dichlorophenyl)cyclopropane-1-carboxamido)-N-(4-fluorophenyl)benzamide]
pest or weed control at 50 µg/cm2 [1, 5]: 50 to 100%
pest or weed control at 50 µg/cm2 [2, 6]: 50 to 100%
pest or weed control at 200 µg/mL [3, 7]: 0 to 80%
YFM (Biological Results, rating) [4]: A (80-100)

O=C(Nc1ccc(F)cc1)c1cccc(NC(=O)[C@H]2[C@H](c3cc(Cl)cc(Cl)c3)C2(Cl)Cl)c1 (relative stereo) [F2, trans-3-(2,2-Dichloro-3-(3,5-dichlorophenyl)cyclopropane-1-carboxamido)-N-(4-fluorophenyl)benzamide]
pest or weed control at 50 µg/cm2 [1, 5]: 50 to 100%
pest or weed control at 50 µg/cm2 [2, 6]: 50 to 100%
pest or weed control at 200 µg/mL [3, 7]: 0 to 80%
YFM (Biological Results, rating) [4]: A (80-100)

Cc1ccccc1NC(=O)c1cc(NC(=O)[C@H]2[C@H](c3cc(Cl)cc(Cl)c3)C2(Cl)Cl)ccc1Cl (relative stereo) [F9, trans-2-Chloro-5-(2,2-dichloro-3-(3,5-dichlorophenyl)cyclopropane-1-carboxamido)-N-(o-tolyl)benzamide]
pest or weed control at 50 µg/cm2 [1, 5]: 50 to 100%
pest or weed control at 50 µg/cm2 [2, 6]: 50 to 100%
pest or weed control at 200 µg/mL [3, 7]: 80 to 100%
YFM (Biological Results, rating) [4]: A (80-100)

Cc1ccc(NC(=O)[C@H]2[C@H](c3cc(Cl)cc(Cl)c3)C2(Cl)Cl)cc1C(=O)Nc1ccc(F)cc1 (relative stereo) [F10, trans-5-(2,2-Dichloro-3-(3,5-dichlorophenyl)cyclopropane-1-carboxamido)-N-(4-fluorophenyl)-2-methylbenzamide]
pest or weed control at 50 µg/cm2 [1, 5]: 50 to 100%
pest or weed control at 50 µg/cm2 [2, 6]: 50 to 100%
pest or weed control at 200 µg/mL [3, 7]: 0 to 80%
YFM (Biological Results, rating) [4]: A (80-100)

O=C(Nc1ccc(F)cc1)c1cc(NC(=O)[C@H]2[C@H](c3cc(Cl)c(Cl)c(Cl)c3)C2(Cl)Cl)ccc1Cl (relative stereo) [F13, trans-2-Chloro-5-(2,2-dichloro-3-(3,4,5-trichlorophenyl)cyclopropane-1-carboxamido)-N-(4-fluorophenyl)benzamide]
pest or weed control at 50 µg/cm2 [1, 5]: 50 to 100%
pest or weed control at 50 µg/cm2 [2, 6]: 50 to 100%
pest or weed control at 200 µg/mL [3, 7]: 0 to 80%
YFM (Biological Results, rating) [4]: A (80-100)

COc1ccc(NC(=O)[C@H]2[C@H](c3cc(Cl)cc(Cl)c3)C2(Cl)Cl)cc1C(=O)Nc1ccc(F)cc1 (relative stereo) [F128, trans-5-(2,2-Dichloro-3-(3,5-dichlorophenyl)cyclopropane-1-carboxamido)-N-(4-fluorophenyl)-2-methoxybenzamide]
pest or weed control at 50 µg/cm2 [1, 5]: 50 to 100%
pest or weed control at 50 µg/cm2 [2, 6]: 0 to 50%
pest or weed control at 200 µg/mL [3, 7]: 0 to 80%

O=C(Nc1ccc(F)cc1)c1ccc(Cl)c(NC(=O)[C@H]2[C@H](c3cc(Cl)cc(Cl)c3)C2(Cl)Cl)c1 (relative stereo) [F130, trans-4-Chloro-3-(2,2-dichloro-3-(3,5-dichlorophenyl)cyclopropane-1-carboxamido)-N-(4-fluorophenyl)benzamide]
pest or weed control at 50 µg/cm2 [1, 5]: 50 to 100%
pest or weed control at 200 µg/mL [3, 7]: 0 to 80%
YFM (Biological Results, rating) [4]: B (More than 0-Less than 80)

O=C(Nc1ccc(F)nc1)c1cc(NC(=O)[C@H]2[C@H](c3cc(Cl)cc(Cl)c3)C2(Cl)Cl)ccc1Cl (relative stereo) [F142, trans-2-chloro-5-(2,2-dichloro-3-(3,5-dichlorophenyl)cyclopropane-1-carboxamido)-N-(6-fluoropyridin-3-yl)benzamide]
pest or weed control at 50 µg/cm2 [1, 5]: 50 to 100%
pest or weed control at 50 µg/cm2 [2, 6]: 50 to 100%
pest or weed control at 200 µg/mL [3, 7]: 80 to 100%

COc1ccc(NC(=O)c2cc(NC(=O)[C@H]3[C@H](c4cc(Cl)cc(Cl)c4)C3(Cl)Cl)ccc2Cl)cc1 (relative stereo) [F146, trans-2-chloro-5-(2,2-dichloro-3-(3,5-dichlorophenyl)cyclopropane-1-carboxamido)-N-(4-methoxyphenyl)benzamide]
pest or weed control at 50 µg/cm2 [1, 5]: 50 to 100%
pest or weed control at 50 µg/cm2 [2, 6]: 50 to 100%
pest or weed control at 200 µg/mL [3, 7]: 80 to 100%

O=C(Nc1ccc(OC(F)(F)F)cc1)c1cc(NC(=O)[C@H]2[C@H](c3cc(Cl)cc(Cl)c3)C2(Cl)Cl)ccc1Cl (relative stereo) [F147, trans-2-Chloro-5-(2,2-dichloro-3-(3,5-dichlorophenyl)cyclopropane-1-carboxamido)-N-(4-(trifluoromethoxy)phenyl)benzamide]
pest or weed control at 50 µg/cm2 [1, 5]: 50 to 100%
pest or weed control at 50 µg/cm2 [2, 6]: 50 to 100%
pest or weed control at 200 µg/mL [3, 7]: 0 to 80%

O=C(Nc1ccc(OC(F)F)cc1)c1cc(NC(=O)[C@H]2[C@H](c3cc(Cl)cc(Cl)c3)C2(Cl)Cl)ccc1Cl (relative stereo) [F148, trans-2-Chloro-5-(2,2-dichloro-3-(3,5-dichlorophenyl)cyclopropane-1-carboxamido)-N-(4-(difluoromethoxy)phenyl)benzamide]
pest or weed control at 50 µg/cm2 [1, 5]: 50 to 100%
pest or weed control at 50 µg/cm2 [2, 6]: 50 to 100%
pest or weed control at 200 µg/mL [3, 7]: 0 to 80%

COc1ccc(NC(=O)c2cc(NC(=O)[C@H]3[C@H](c4cc(Cl)cc(Cl)c4)C3(Cl)Cl)ccc2Cl)c(F)c1 (relative stereo) [F150, trans-2-Chloro-5-(2,2-dichloro-3-(3,5-dichlorophenyl)cyclopropane-1-carboxamido)-N-(2-fluoro-4-methoxyphenyl)benzamide]
pest or weed control at 50 µg/cm2 [1, 5]: 50 to 100%
pest or weed control at 50 µg/cm2 [2, 6]: 50 to 100%
pest or weed control at 200 µg/mL [3, 7]: 80 to 100%

Cc1ccc(NC(=O)c2cc(NC(=O)[C@H]3[C@H](c4cc(Cl)cc(Cl)c4)C3(Cl)Cl)ccc2Cl)c(F)c1 (relative stereo) [F151, trans-2-Chloro-5-(2,2-dichloro-3-(3,5-dichlorophenyl)cyclopropane-1-carboxamido)-N-(2-fluoro-4-methylphenyl)benzamide]
pest or weed control at 50 µg/cm2 [1, 5]: 50 to 100%
pest or weed control at 50 µg/cm2 [2, 6]: 50 to 100%
pest or weed control at 200 µg/mL [3, 7]: 80 to 100%

CNC(=O)c1ccc(NC(=O)c2cc(NC(=O)[C@H]3[C@H](c4cc(Cl)cc(Cl)c4)C3(Cl)Cl)ccc2Cl)cc1 (relative stereo) [F152, trans-2-Chloro-5-(2,2-dichloro-3-(3,5-dichlorophenyl)cyclopropane-1-carboxamido)-N-(4-(methylcarbamoyl)phenyl)benzamide]
pest or weed control at 50 µg/cm2 [1, 5]: 50 to 100%
pest or weed control at 50 µg/cm2 [2, 6]: 50 to 100%
pest or weed control at 200 µg/mL [3, 7]: 0 to 80%

CC(=O)Nc1ccc(NC(=O)c2cc(NC(=O)[C@H]3[C@H](c4cc(Cl)cc(Cl)c4)C3(Cl)Cl)ccc2Cl)cc1 (relative stereo) [F153, trans-N-(4-Acetamidophenyl)-2-chloro-5-(2,2-dichloro-3-(3,5-dichlorophenyl)cyclopropane-1-carboxamido)benzamide]
pest or weed control at 50 µg/cm2 [1, 5]: 50 to 100%
pest or weed control at 50 µg/cm2 [2, 6]: 50 to 100%
pest or weed control at 200 µg/mL [3, 7]: 0 to 80%

O=C(Nc1cc(F)cc(F)c1)c1cc(NC(=O)[C@H]2[C@H](c3cc(Cl)cc(Cl)c3)C2(Cl)Cl)ccc1Cl (relative stereo) [F154, trans-2-Chloro-5-(2,2-dichloro-3-(3,5-dichlorophenyl)cyclopropane-1-carboxamido)-N-(3,5-difluorophenyl)benzamide]
pest or weed control at 50 µg/cm2 [1, 5]: 50 to 100%
pest or weed control at 50 µg/cm2 [2, 6]: 50 to 100%
pest or weed control at 200 µg/mL [3, 7]: 80 to 100%

O=C(Nc1ccc(Cl)c(C(=O)N2CCc3cc(F)ccc32)c1)[C@H]1[C@H](c2cc(Cl)cc(Cl)c2)C1(Cl)Cl (relative stereo) [F155, trans-2,2-Dichloro-N-(4-chloro-3-(5-fluoroindoline-1-carbonyl)phenyl)-3-(3,5-dichlorophenyl)cyclopropane-1-carboxamide]
pest or weed control at 50 µg/cm2 [1, 5]: 50 to 100%
pest or weed control at 50 µg/cm2 [2, 6]: 50 to 100%
pest or weed control at 200 µg/mL [3, 7]: 0 to 80%

O=C(Nc1ccc(F)cc1)c1cc(NC(=O)C2C(c3cc(Cl)cc(Cl)c3)C2(F)Cl)ccc1Cl (stereo not drawn) [PF153, 2-Chloro-5-(trans)-2-chloro-3-(3,5-dichlorophenyl)-2-fluorocyclopropane-1-carboxamido)-N-(4-fluorophenyl)benzamide]
pest or weed control at 50 µg/cm2 ([1]; Cabbage Looper, 128-well diet tray assay, read-out: CL rating): 50 to 100%
pest or weed control at 50 µg/cm2 ([2]; Beet Armyworm, 128-well diet tray assay, read-out: BAW rating): 50 to 100%
pest or weed control at 200 µg/mL ([3]; Green Peach Aphid, foliar spray on cabbage seedlings, read-out: GPA rating): 80 to 100%
